Where two headings read alike, the source gives them in different places.
Legend:
ratBuChE = molecular target: T1, ratBuChE (Rattus norvegicus, UniProt Q9JKC1); assay: ratBuChE inhibition, modified Ellman's method; type: biochemical
T1 construct: BuChE from rat serum or human serum (Sigma Co.); from tissue; host or cells: rat serum
Method: (§1) The AChE and BuChE inhibitory activities of the synthesised compounds were evaluated using the Ellman assay with slight modification. AChE from 5% rat cortex homogenate or human erythrocytes (Sigma Co.). BuChE from rat serum or human serum (Sigma Co.).

[1] = for ORAC: Trolox as standard
Method: The skeleton compounds naringenin and apigenin were also evaluated for comparison purposes, and vitamin E analogue Trolox was used as a standard.
The antioxidant potency of target compounds was tested using an oxygen radical absorbance capacity fluorescein (ORAC-FL) assay.

ratAChE = molecular target: T2, ratAChE (Rattus norvegicus, UniProt P37136); assay: biochemical; details: for IC50: from 5% rat cortex homogenate; for SI: Selectivity Index = IC50 (BuChE)/IC50 (AChE), rat enzymes
T2 construct: AChE from 5% rat cortex homogenate or human erythrocytes (Sigma Co.); from tissue; host or cells: 5% rat cortex homogenate
T2 sequence (P37136 32-614): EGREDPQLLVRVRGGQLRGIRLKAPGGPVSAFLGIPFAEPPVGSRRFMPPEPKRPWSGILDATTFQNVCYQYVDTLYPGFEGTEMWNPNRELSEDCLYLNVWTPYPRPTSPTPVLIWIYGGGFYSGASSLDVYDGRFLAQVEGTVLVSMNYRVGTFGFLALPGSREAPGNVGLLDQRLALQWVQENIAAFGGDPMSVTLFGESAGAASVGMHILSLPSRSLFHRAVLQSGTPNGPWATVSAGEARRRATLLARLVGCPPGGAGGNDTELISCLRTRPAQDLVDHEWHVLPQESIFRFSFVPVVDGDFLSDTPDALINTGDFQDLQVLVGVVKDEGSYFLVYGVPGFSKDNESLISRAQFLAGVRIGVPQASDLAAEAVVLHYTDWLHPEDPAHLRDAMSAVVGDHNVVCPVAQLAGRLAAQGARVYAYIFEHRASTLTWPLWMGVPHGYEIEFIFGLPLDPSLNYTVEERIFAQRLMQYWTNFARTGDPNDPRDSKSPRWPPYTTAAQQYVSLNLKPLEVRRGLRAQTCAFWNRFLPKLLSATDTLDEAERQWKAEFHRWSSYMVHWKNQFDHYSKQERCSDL
Method: as §1

[2] = cited from earlier work
huAChE = huAChE (Homo sapiens, UniProt P22303); assay: biochemical; type: biochemical; parameters: AChE from 5% rat cortex homogenate or human erythrocytes (Sigma Co.); purchased Sigma Co; host or cells: human erythrocytes; details: for SI: Selectivity Index = IC50 (BuChE)/IC50 (AChE), human enzymes; for IC50: from human erythrocytes, read-out: IC50 ± SD huAChE
Method: as §1

huBuChE = molecular target: T3, huBuChE (Homo sapiens, UniProt P06276); assay: biochemical; type: biochemical; details: from human serum; read-out: IC50 ± SD huBuChE
T3 construct: BuChE from rat serum or human serum (Sigma Co.); purchased Sigma Co; host or cells: human serum
Method: as §1

[3] = test system: scopolamine-induced mice memory impairment; assay: Step-down passive avoidance task; details: 5 mg/kg, scopolamine 3 mg/kg
Method: Sixty mice were randomly divided into six groups. […] After 30 min, memory impairment was induced by administering scopolamine (3 mg/kg).

Aβ1–42 [4] = molecular target: T4, Aβ1–42 (Homo sapiens, UniProt P05067); assay: Cu^2+-induced Aβ1–42 aggregation, ThT fluorescence; type: biochemical; details: tested compounds and Aβ1–42 25 μM
Method: Curcumin was also tested as a referenced compound.
(§2) The Thioflavin T-based flurometric assay was employed to test the inhibition potency on self-induced/Cu^2+-induced Aβ1-42 aggregation.

Aβ1–42 [5] = molecular target: T4, Aβ1–42; assay: Self-induced Aβ1–42 aggregation, Thioflavin T fluorescence; type: biochemical; details: tested compounds and Aβ1–42 25 μM
From the text: as §2

in vitro = details: PAMPA

huAChE, sequence (P22303 32-617 isoform P22303-2 limits assumed): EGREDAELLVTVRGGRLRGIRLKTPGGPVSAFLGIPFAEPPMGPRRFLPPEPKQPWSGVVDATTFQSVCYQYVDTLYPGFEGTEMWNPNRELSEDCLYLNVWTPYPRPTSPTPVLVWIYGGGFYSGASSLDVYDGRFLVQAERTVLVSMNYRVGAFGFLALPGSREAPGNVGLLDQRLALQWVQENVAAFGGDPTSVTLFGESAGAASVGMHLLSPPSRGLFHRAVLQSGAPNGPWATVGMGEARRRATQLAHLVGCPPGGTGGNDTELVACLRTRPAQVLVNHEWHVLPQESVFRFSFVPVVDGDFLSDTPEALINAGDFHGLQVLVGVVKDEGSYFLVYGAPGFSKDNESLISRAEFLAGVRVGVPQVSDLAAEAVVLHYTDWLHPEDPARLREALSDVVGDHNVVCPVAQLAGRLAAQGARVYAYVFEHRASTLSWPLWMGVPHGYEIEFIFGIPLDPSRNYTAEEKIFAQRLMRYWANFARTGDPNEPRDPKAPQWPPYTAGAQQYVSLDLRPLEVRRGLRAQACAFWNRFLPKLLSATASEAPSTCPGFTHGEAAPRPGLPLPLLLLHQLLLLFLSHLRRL
T1 sequence (Q9JKC1 24-597): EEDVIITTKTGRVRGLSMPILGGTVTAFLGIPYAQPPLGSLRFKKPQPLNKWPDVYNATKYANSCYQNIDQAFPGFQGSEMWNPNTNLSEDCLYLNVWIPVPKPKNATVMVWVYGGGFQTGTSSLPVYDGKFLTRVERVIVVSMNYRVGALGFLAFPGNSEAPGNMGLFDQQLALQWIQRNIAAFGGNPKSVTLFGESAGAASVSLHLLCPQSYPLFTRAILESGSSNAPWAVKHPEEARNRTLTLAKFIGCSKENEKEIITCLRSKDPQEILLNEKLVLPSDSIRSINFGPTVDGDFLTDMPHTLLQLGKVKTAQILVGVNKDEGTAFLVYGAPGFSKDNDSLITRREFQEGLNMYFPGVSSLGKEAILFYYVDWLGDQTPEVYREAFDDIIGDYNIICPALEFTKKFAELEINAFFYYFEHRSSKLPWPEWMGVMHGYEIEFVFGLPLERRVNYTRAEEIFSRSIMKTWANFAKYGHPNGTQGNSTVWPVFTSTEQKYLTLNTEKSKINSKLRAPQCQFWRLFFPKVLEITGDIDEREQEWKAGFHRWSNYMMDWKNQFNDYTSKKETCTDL
T3 sequence (P06276 29-602): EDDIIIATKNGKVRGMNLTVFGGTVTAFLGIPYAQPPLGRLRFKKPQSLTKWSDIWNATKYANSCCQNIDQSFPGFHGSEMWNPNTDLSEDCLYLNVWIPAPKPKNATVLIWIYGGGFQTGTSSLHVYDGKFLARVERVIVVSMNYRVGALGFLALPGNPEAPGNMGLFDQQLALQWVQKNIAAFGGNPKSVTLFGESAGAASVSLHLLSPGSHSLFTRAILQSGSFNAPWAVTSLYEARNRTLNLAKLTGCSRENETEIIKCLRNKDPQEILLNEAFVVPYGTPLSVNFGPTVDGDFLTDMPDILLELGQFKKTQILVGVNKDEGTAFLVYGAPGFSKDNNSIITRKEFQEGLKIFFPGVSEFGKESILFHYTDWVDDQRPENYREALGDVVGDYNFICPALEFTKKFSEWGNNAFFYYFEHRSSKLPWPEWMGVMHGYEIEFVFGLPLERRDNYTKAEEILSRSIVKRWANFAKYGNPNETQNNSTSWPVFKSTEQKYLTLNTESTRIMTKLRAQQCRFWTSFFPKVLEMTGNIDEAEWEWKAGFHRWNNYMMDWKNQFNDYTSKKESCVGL
T4 sequence (P05067 672-713): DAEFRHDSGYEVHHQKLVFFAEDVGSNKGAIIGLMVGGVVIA

Row | Compound | IC50 (ratBuChE) [µM] | ORAC [1] | SI (huAChE) | IC50 (huAChE) [nM] | SI (ratAChE) | IC50 (ratAChE; read-out: IC50 ± SD ratAChE) [nM] | IC50 (huBuChE) [µM] | other results
1 | O=C1CC(c2ccc(O)cc2)Oc2cc(O)cc(O)c21 (stereo not drawn) [naringenin, 5,7-dihydroxy-2–(4-hydroxyphenyl)-2,3-dihydrochromen-4-one, reference compound] | > 50 | 5.2 ± 0.29 μM of Trolox equivalent/μM of tested compound |  |  |  |  |  | ORAC values [1]: 5.2 eq; IC50 (ratAChE; IC50 ± SD ratAChE): > 50000 nM; oral bioavailability [2]: 15%
2 | CCN(CCCCOc1ccc(-c2cc(=O)c3c(O)cc(OCCCCN(CC)Cc4ccccc4)cc3o2)cc1)Cc1ccccc1 [Compound 10h, 7–(4-(benzyl(ethyl)amino)butoxy)-2–(4-(4-(benzyl(ethyl)amino)butoxy)phenyl)-5-hydroxy-4H-chromen-4-one] | 12.9 ± 0.51 | 1.1 ± 0.03 μM of Trolox equivalent/μM of tested compound | 23.1 | 160 ± 10 | 14.0 | 920 ± 60 | 3.7 ± 0.06 | 
3 | COc1cc2c(cc1OC)C(=O)C(CC1CCN(Cc3ccccc3)CC1)C2 (stereo not drawn) [donepezil, reference compound] |  |  |  |  |  |  |  | step-down latency [3]: 219.4 s
4 | COc1cc(/C=C/C(=O)CC(=O)/C=C/c2ccc(O)c(OC)c2)ccc1O [curcumin, reference compound] |  |  |  |  |  |  |  | inhibition at 25 µM (Aβ1–42 [4]): 50.6 ± 0.33%; inhibition at 25 µM (Aβ1–42 [5]): 45.9 ± 0.67%
5 | CCN(CCCCCOc1ccc(-c2cc(=O)c3c(O)cc(OCCCCCN(CC)Cc4ccccc4OC)cc3o2)cc1)Cc1ccccc1OC [Compound 10l, 7-((5-(ethyl(2-methoxybenzyl)amino)pentyl)oxy)-2–(4-((5-(ethyl(2-methoxybenzyl)amino)pentyl)oxy)phenyl)-5-hydroxy-4H-chromen-4-one] | 14.4 ± 0.32 | 1.3 ± 0.03 μM of Trolox equivalent/μM of tested compound | 24.4 | 90 ± 2 | 23.2 | 620 ± 50 | 2.2 ± 0.18 | 
6 | CCn1cc(C(=O)O)c(=O)c2cc(F)c(N3CCNCC3)cc21 [Norfloxacin, reference compound] |  |  |  |  |  |  |  | Papp at 100 μg/mL (in vitro): 0.13 ± 0.01 ×10⁻⁶ cm/s
7 | CCN(CCCCCOc1ccc(-c2cc(=O)c3c(O)cc(OCCCCCN(CC)Cc4ccccc4)cc3o2)cc1)Cc1ccccc1 [Compound 10k, 7-((5-(benzyl(ethyl)amino)pentyl)oxy)-2–(4-((5-(benzyl(ethyl)amino)pentyl)oxy)phenyl)-5-hydroxy-4H-chromen-4-one] | 13.3 ± 0.27 | 1.1 ± 0.02 μM of Trolox equivalent/μM of tested compound | 34.6 | 130 ± 10 | 16.4 | 810 ± 50 | 4.5 ± 0.12 | 
